Activity calls are given as the source filed them. No cut-off for these calls is given here.
Key:
Saccharomyces cerevisiae [1] = assay: Cytotoxicity against wild-type Saccharomyces cerevisiae by yeast halo assay relative to control; assay type: functional
Saccharomyces cerevisiae [2] = assay: Cytotoxicity against wild-type Saccharomyces cerevisiae hof1delta mutant by yeast halo assay relative to control; assay type: functional

Row | SMILES | Activity (Saccharomyces cerevisiae [1]) | Activity (Saccharomyces cerevisiae [2]) | inhibition zone (IZ) (Saccharomyces cerevisiae [1]) | inhibition zone (IZ) (Saccharomyces cerevisiae [2])
1 | CC/C=C\[C@H](O)[C@H](O)C1=C(C)C(=O)[C@]2(O1)C(=O)N[C@@](OC)(C(=O)c1ccccc1)[C@@H]2O | inactive | inactive | – | –
2 | CC/C=C\[C@H](OC)[C@H](O)C1=C(C)C(=O)[C@]2(O1)C(=O)N[C@@](OC)(C(=O)c1ccccc1)[C@@H]2O [11-O-METHYLPSEUROTIN A] | – | – | 4 mm | 9 mm
